Experiment: Solubility of tenofovir in the aqueous neutralization solution
Type: physicochemical
Method: The present invention also relates to a method of adding a defined proportion of calcium hydride to magnesium butoxide that is a catalyst commonly used in the synthesis of DEPMPA from HPA to shorten the reaction time from 18 hours to 6 hours or less and cause the production of toluene calcium sulfonate to reduce highly deliquescent substances, and using an ion-exchange resin (Dowex 50W, sulfonic acid cation exchange resin) after neutralization with a counter-alkali solution in the dealcoholizing hydrolysis of the ester compound into tenofovir, thereby to reach a precise isoelectric point (pH 3.2) and further increase the synthesis yield of tenofovir. Generally, when the pH value is 2.5 to 3.5 in the neutralization, tenofovir (H2O, one-molecule crystal water) is dissolved in the aqueous solution at about 7 percent. When the neutralization is perfectly performed with the ion-exchange resin, the solubility of tenofovir can be reduced to 4 percent or below.

solubility of tenofovir (neutralization perfectly performed with the ion-exchange resin): ≤ 4% | tenofovir dissolved in the aqueous solution (pH 2.5 to 3.5 in the neutralization, tenofovir H2O, one-molecule crystal water): about 7%
SMILES: C[C@H](Cn1cnc2c(N)ncnc21)OCP(=O)(O)O [tenofovir, (R)-9-[2-(phosphonomethoxy)propyl]adenine]

Reference: US10155007B2, “Synthesis method for improved tenofovir disoproxil fumarate using ion-exchange resin and method for preparing oral dissolving film form using the same” (Firson, priority 2014, dated 2018)
